# In ChEMBL document CHEMBL4732067, “Synthesis and evaluation of new compounds bearing 3-(4-aminopiperidin-1-yl)methyl magnolol scaffold as anticancer agents for the treatment of non-small cell lung cancer via targeting autophagy” (Eur J Med Chem, 2021):
# Key:
# NCI-H460 [1] = assay: Induction of cell cycle arrest in human NCI-H460 cells assessed as accumulation at G0/G1 phase at 1 uM incubated for 24 hrs by propidium iodide staining based flow cytometry (reference value: 53.97 %); type: functional
# L929 = assay: Cytotoxicity against mouse L929 cells; type: cell-based
# NCI-H460 [2] = assay: Induction of cell cycle arrest in human NCI-H460 cells assessed as accumulation at G2/M phase at 0.5 uM incubated for 24 hrs by propidium iodide staining based flow cytometry (reference value: 16.71 %); type: functional
# NCI-H460 [3] = assay: Induction of apoptosis in human NCI-H460 cells assessed as early apoptotic cells at 2 uM after 48 hrs by Annexin V-FITC/propidium iodide staining based flow cytometric analysis (reference value: 3.980 %); type: functional
# NCI-H460 [4] = assay: Induction of apoptosis in human NCI-H460 cells assessed as necrotic cells at 5 uM after 48 hrs by Annexin V-FITC/propidium iodide staining based flow cytometric analysis (reference value: 0.498 %); type: functional
# HCC827 = assay: Antiproliferative activity against human HCC827 cells assessed as reduction in cell viability after 72 hrs by MTT assay; type: functional, cell-based; details: HCC827, 72 h
# NCI-H1975 = assay: Antiproliferative activity against human NCI-H1975 cells assessed as reduction in cell viability after 72 hrs by MTT assay; type: functional, cell-based; details: NCI-H1975, 72 h
# NCI-H441 = assay: Antiproliferative activity against human NCI-H441 cells […] assessed as reduction in cell viability after 72 hrs by MTT assay; type: functional, cell-based; details: NCI-H441, 72 h
# [5] = Toxicity in nude BALB/c mouse xenografted with C26 cells assessed as abnormalities in lung size and morphology at 50 mg/kg, po administered once daily; type: organism-based; details: in vivo
# NCI-H460 [6] = assay: Induction of apoptosis in human NCI-H460 cells assessed as viable cells at 1 uM after 48 hrs by Annexin V-FITC/propidium iodide staining based flow cytometric analysis (reference value: 91.528 %); type: functional; details: read-out: Activity
# NCI-H460 [7] = assay: Induction of cell cycle arrest in human NCI-H460 cells assessed as accumulation at S phase at 0.5 uM incubated for 24 hrs by propidium iodide staining based flow cytometry (reference value: 29.32 %); type: functional
# NCI-H460 [8] = assay: Induction of apoptosis in human NCI-H460 cells assessed as late apoptotic cells at 1 uM after 48 hrs by Annexin V-FITC/propidium iodide staining based flow cytometric analysis (reference value: 3.995 %); type: functional
# NCI-H1650 = assay: Antiproliferative activity against human NCI-H1650 cells expressing EGFR mutant assessed as reduction in cell viability after 72 hrs by MTT assay; type: functional, cell-based; details: NCI-H1650, 72 h
# NCI-H460 [9] = assay: Induction of cell cycle arrest in human NCI-H460 cells assessed as accumulation at S phase at 1 uM incubated for 24 hrs by propidium iodide staining based flow cytometry (reference value: 29.32 %); type: functional
# NCI-H460 [10] = assay: Induction of apoptosis in human NCI-H460 cells assessed as early apoptotic cells at 10 uM after 48 hrs by Annexin V-FITC/propidium iodide staining based flow cytometric analysis (reference value: 3.980 %); type: functional
# [11] = Toxicity in nude BALB/c mouse xenografted with human NCI-H460 cells assessed as abnormalities in tissue at 20 to 40 mg/kg, po administered once daily; type: organism-based; details: in vivo, dose 20-40 mg/kg
# NCI-H460 [12] = assay: Induction of cell cycle arrest in human NCI-H460 cells assessed as accumulation at G0/G1 phase at 0.5 uM incubated for 24 hrs by propidium iodide staining based flow cytometry (reference value: 53.97 %); type: functional
# NCI-H460 [13] = assay: Induction of apoptosis in human NCI-H460 cells assessed as increase in cleaved caspase 3 expression level after 48 hrs by Western blot analysis; type: functional, cell-based; details: dose 0.5-10 µM
# NCI-H460 [14] = assay: Antiproliferative activity against human NCI-H460 cells assessed as reduction in cell viability after 72 hrs by MTT assay; type: functional, cell-based; details: NCI-H460, 72 h
# NCI-H460 [15] = assay: Induction of apoptosis in human NCI-H460 cells assessed as late apoptotic cells at 10 uM after 48 hrs by Annexin V-FITC/propidium iodide staining based flow cytometric analysis (reference value: 3.995 %); type: functional
# [16] = Antiproliferative activity against human SPCA1 cells expressing wild type EGFR assessed as reduction in cell viability after 72 hrs by MTT assay; type: functional, cell-based; details: SPCA1, 72 h
# [17] = Toxicity in nude BALB/c mouse xenografted with C26 cells assessed as abnormalities in heart size and morphology at 50 mg/kg, po administered once daily; type: organism-based; details: in vivo
# [18] = Antitumor activity against mouse C26 cells xenografted in BALB/c mouse assessed as tumor growth inhibition at 50 mg/kg, po administered once daily and measured every two days by caliper method relative to control; type: functional; details: 48 h, read-out: TGI
# NCI-H460 [19] = assay: Induction of cell cycle arrest in human NCI-H460 cells assessed as accumulation at S phase at 5 uM incubated for 24 hrs by propidium iodide staining based flow cytometry (reference value: 29.32 %); type: functional
# [20] = Toxicity in nude BALB/c mouse xenografted with C26 cells assessed as abnormalities in kidney size and morphology at 50 mg/kg, po administered once daily; type: organism-based; details: in vivo
# NCI-H460 [21] = assay: Induction of apoptosis in human NCI-H460 cells assessed as early apoptotic cells at 1 uM after 48 hrs by Annexin V-FITC/propidium iodide staining based flow cytometric analysis (reference value: 3.980 %); type: functional
# [22] = Toxicity in nude BALB/c mouse xenografted with C26 cells assessed as abnormalities in liver size and morphology at 50 mg/kg, po administered once daily; type: organism-based; details: in vivo
# NCI-H460 [23] = assay: Induction of apoptosis in human NCI-H460 cells assessed as viable cells at 5 uM after 48 hrs by Annexin V-FITC/propidium iodide staining based flow cytometric analysis (reference value: 91.528 %); type: functional; details: read-out: Activity
# NCI-H460 [24] = assay: Induction of apoptosis in human NCI-H460 cells assessed as necrotic cells at 1 uM after 48 hrs by Annexin V-FITC/propidium iodide staining based flow cytometric analysis (reference value: 0.498 %); type: functional
# NCI-H460 [25] = assay: Induction of autophagy in human NCI-H460 cells assessed as up regulation of Beclin 1 protein expression after 24 hrs by Western blot analysis; type: functional, cell-based; details: dose 0.5-10 µM
# NCI-H460 [26] = assay: Antitumor activity against human NCI-H460 cells xenografted in nude BABL/c mouse assessed as tumor growth inhibition at 20 mg/kg, po administered once daily and measured every two days in presence of chloroquine diphosphate by caliper method relative to control; type: functional; details: 48 h, read-out: TGI
# NCI-H460 [27] = assay: Induction of autophagy in human NCI-H460 cells assessed as up regulation of LC3-2 protein expression after 24 hrs by Western blot analysis; type: functional, cell-based; details: dose 0.5-10 µM
# NCI-H460 [28] = assay: Induction of apoptosis in human NCI-H460 cells assessed as necrotic cells at 10 uM after 48 hrs by Annexin V-FITC/propidium iodide staining based flow cytometric analysis (reference value: 0.498 %); type: functional
# NCI-H460 [29] = assay: Antitumor activity against human NCI-H460 cells xenografted in nude BABL/c mouse assessed as tumor growth inhibition at 40 mg/kg, po administered once daily and measured every two days by caliper method relative to control; type: functional; details: 48 h, read-out: TGI
smiles,measurement,setting,value
C=CCc1ccc(OC(C)C)c(-c2cc(CC=C)cc(CN3CCC(N)CC3)c2O)c1,Activity,NCI-H460 [1],56.47%
same,IC50,L929,6.24 µM
same,Activity,NCI-H460 [2],21.64%
same,Activity,NCI-H460 [3],5.363%
same,Activity,NCI-H460 [4],0.608%
same,IC50,HCC827,630 nM
same,IC50,NCI-H1975,930 nM
same,IC50,NCI-H441,940 nM
same,Activity,[5],Non-Toxic
same,viability at 1 µM,NCI-H460 [6],91.1%
same,Activity,NCI-H460 [7],23.58%
same,Activity,NCI-H460 [8],3.979%
same,IC50,NCI-H1650,820 nM
same,Activity,NCI-H460 [9],23.89%
same,Activity,NCI-H460 [10],34.82%
same,Activity,[11],Non-Toxic
same,Activity,NCI-H460 [12],54.79%
same,Activity,NCI-H460 [13],Dose-dependent effect
same,IC50,NCI-H460 [14],860 nM
same,Activity,NCI-H460 [15],33.48%
same,IC50,[16],1080 nM
same,Activity,[17],Non-Toxic
same,inhibition in vivo at 50 mg/kg,[18],65.4%
same,Activity,NCI-H460 [19],22.61%
same,Activity,[20],Non-Toxic
same,Activity,NCI-H460 [21],4.467%
same,Activity,[22],Non-Toxic
same,viability at 5 µM,NCI-H460 [23],53.5%
same,Activity,NCI-H460 [24],0.394%
same,Activity,NCI-H460 [25],Dose-dependent effect
same,inhibition in vivo at 20 mg/kg,NCI-H460 [26],55.9%
same,Activity,NCI-H460 [27],Dose-dependent effect
same,Activity,NCI-H460 [28],1.58%
same,inhibition in vivo at 40 mg/kg,NCI-H460 [29],56.8%
